Results on five compounds are retold here after ChEMBL document CHEMBL1201862, “PubChem BioAssay data set” (2004).

Active and inactive are the calls of the source. Bounds are passed on as bounds.

The target in assay [1] is Mothers against decapentaplegic homolog 3 (Homo sapiens, UniProt P84022). As to the kind of experiment: inhibitors of SMAD-driven TGF-beta signaling – dose response (AID 715). The format is functional.
For assay [2], the system named is Vero. In words: viability of Vero cells under compound – cytotoxicity control for flavivirus capping enzyme inhibitors (AID 588742). Conditions: Chlorocebus sabaeus. Type of assay: functional.
Assay [3] has as its target T1, CAAX prenyl protease 2 (Homo sapiens, UniProt Q9Y256).
T1 sequence (Q9Y256 whole entry): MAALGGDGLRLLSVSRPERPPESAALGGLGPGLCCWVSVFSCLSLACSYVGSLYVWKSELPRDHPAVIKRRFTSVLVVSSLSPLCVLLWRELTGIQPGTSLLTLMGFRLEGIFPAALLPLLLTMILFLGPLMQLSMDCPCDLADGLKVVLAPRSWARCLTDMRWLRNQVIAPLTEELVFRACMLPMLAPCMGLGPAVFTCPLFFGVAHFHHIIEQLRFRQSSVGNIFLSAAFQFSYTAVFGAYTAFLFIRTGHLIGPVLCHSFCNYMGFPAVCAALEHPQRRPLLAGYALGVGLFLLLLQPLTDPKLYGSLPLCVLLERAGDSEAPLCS
In words: inhibition of Ras-converting CAAX protease Rce1 – biochemical, yeast membranes, quenched-peptide fluorescence, cherry-pick, dose response (AID 588849).

Assay [4] in a line: reduction of Shn3 3'UTR-driven luciferase in osteoblasts – cell-based, Clone20 osteoblasts, firefly luciferase, cherry-picked, dose response (AID 624132).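 Also: firefly luciferase luminescence from reporter carrying the Shn3 3'UTR in osteoblasts.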 The format is functional.
Assay [5] deals with T2, Insulin-degrading enzyme (Homo sapiens, UniProt P14735).
T2 sequence (P14735 whole entry): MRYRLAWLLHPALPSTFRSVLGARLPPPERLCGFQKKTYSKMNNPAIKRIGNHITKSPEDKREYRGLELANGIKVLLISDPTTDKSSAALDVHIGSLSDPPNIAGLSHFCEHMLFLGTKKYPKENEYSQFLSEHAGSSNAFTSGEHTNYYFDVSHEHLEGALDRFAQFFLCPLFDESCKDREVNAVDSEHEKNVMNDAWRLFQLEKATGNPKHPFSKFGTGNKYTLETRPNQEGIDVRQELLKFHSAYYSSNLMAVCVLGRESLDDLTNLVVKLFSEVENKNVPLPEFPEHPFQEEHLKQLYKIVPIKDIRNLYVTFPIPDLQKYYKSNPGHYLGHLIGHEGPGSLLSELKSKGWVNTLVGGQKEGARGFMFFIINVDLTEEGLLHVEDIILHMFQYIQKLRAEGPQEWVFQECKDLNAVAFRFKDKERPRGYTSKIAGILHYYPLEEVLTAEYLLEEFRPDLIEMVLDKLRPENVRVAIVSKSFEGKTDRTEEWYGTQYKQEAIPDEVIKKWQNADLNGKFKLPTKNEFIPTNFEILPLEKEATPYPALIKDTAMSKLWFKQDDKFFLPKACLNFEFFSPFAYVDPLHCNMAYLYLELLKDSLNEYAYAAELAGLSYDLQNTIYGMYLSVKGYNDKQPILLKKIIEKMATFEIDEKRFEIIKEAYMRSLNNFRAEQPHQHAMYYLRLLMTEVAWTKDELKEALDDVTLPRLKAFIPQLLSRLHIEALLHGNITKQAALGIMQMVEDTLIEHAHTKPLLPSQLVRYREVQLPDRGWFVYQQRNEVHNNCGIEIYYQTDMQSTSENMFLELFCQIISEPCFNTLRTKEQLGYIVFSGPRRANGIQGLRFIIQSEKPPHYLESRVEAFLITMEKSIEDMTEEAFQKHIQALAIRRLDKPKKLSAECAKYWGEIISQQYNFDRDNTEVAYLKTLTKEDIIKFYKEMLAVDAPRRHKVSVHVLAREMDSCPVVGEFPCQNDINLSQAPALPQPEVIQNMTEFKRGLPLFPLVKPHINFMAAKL
In words: cellular IDE activation of Abeta substrate cleavage – fluorescence polarization, HEK cells, dose response (AID 588439). Type of assay: functional, cell-based.

The target of assay [6] is Maternal embryonic leucine zipper kinase (Homo sapiens, UniProt Q14680). Type of assay: functional.
Maternal embryonic leucine zipper kinase, sequence (Q14680 whole entry): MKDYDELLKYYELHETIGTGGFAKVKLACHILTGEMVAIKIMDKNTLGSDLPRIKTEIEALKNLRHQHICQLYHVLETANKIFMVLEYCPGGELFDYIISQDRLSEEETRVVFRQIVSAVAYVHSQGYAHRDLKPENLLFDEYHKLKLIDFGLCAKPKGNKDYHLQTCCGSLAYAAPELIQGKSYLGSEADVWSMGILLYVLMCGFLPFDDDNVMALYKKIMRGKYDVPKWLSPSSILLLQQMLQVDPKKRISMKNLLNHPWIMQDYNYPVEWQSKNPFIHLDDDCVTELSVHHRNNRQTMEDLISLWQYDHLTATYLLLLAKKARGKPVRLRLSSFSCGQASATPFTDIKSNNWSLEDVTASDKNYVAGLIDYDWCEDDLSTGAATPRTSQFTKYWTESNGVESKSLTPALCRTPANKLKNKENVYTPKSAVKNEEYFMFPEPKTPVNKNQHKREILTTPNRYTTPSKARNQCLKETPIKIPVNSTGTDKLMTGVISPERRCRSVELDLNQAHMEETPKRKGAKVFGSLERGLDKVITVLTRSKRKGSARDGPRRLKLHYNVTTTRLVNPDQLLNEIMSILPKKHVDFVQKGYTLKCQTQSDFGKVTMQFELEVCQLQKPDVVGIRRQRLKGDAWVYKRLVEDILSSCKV
Assay [7] addresses Ribosomal protein S6 kinase alpha-3 (Homo sapiens, UniProt P51812). Type of assay: functional.
Assay [8] has as its target G protein-coupled receptor kinase 5 (Homo sapiens, UniProt P34947). In words: Navigating the Kinome. Panel member name: GPRK5. The format is functional.
For assay [9], the target named is Serine/threonine-protein kinase Chk1 (Homo sapiens, UniProt O14757). The format is functional.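 Also: measured as one member of a kinome-wide kinase profiling panel.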
Serine/threonine-protein kinase Chk1, sequence (O14757 whole entry): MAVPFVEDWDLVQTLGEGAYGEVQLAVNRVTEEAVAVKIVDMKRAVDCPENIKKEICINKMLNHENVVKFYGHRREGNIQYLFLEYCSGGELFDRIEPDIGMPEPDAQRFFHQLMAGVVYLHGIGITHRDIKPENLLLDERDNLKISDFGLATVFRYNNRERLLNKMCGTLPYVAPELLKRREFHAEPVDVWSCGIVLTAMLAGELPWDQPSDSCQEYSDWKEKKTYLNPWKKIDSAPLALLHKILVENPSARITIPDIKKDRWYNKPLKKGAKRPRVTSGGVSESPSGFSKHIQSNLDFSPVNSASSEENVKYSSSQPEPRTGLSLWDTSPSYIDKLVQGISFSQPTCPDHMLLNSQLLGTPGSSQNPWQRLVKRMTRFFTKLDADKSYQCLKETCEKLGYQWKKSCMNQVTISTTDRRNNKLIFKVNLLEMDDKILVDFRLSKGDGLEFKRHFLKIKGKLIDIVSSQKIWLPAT
Assay [10] deals with Serine/threonine-protein phosphatase (Homo sapiens, UniProt Q9BPW0). As to the kind of experiment: inhibition of protein phosphatase 5 activity – biochemical, fluorescence, dose response (AID 2395).
Serine/threonine-protein phosphatase, sequence (Q9BPW0 whole entry): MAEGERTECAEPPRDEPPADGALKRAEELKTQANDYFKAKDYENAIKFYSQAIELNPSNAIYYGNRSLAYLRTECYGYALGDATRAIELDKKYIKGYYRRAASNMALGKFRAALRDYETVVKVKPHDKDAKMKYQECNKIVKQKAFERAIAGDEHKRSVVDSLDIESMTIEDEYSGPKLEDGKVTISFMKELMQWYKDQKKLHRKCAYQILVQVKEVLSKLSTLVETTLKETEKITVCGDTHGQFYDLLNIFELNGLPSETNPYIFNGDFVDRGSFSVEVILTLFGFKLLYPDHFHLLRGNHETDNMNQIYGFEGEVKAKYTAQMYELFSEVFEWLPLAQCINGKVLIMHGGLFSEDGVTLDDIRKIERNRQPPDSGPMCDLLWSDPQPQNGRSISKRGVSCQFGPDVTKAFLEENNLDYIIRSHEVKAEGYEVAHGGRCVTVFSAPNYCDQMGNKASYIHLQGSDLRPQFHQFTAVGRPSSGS
The target in assay [11] is T3, Sentrin-specific protease 7 (Homo sapiens, UniProt Q9BQF6).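 Also: Luminescence-based dose-response confirmation of ultra-high-throughput screening hits, measuring inhibition of SENP7.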
T3 sequence (Q9BQF6 whole entry): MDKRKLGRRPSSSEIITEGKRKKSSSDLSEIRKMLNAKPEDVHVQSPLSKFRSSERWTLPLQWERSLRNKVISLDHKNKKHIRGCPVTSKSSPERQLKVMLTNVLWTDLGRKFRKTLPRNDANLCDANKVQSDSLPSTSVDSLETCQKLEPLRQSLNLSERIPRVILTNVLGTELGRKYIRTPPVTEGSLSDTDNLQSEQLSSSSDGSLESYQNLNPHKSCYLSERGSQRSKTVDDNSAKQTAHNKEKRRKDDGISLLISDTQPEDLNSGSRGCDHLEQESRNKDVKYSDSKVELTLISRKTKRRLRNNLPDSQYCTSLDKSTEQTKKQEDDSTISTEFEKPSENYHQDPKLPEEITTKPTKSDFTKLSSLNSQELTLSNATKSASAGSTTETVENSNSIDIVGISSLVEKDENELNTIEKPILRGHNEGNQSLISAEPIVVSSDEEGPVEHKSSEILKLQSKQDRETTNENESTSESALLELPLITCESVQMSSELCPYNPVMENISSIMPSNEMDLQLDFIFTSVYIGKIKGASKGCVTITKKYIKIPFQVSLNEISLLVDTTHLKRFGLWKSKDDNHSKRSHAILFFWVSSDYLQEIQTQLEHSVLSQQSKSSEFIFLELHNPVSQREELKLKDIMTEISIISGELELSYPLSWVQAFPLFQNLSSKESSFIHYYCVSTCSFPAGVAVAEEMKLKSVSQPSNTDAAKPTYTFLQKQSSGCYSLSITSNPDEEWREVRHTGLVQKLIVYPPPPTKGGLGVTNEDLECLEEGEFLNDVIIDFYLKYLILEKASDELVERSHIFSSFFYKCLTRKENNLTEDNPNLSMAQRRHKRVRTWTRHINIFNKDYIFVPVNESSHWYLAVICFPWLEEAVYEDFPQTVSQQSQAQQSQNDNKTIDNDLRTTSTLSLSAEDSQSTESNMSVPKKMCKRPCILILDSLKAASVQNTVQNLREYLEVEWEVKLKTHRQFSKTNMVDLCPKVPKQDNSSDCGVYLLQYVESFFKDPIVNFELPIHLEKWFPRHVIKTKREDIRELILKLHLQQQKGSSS
Type of assay: functional.

Ribosomal protein S6 kinase alpha-3, sequence (P51812 whole entry): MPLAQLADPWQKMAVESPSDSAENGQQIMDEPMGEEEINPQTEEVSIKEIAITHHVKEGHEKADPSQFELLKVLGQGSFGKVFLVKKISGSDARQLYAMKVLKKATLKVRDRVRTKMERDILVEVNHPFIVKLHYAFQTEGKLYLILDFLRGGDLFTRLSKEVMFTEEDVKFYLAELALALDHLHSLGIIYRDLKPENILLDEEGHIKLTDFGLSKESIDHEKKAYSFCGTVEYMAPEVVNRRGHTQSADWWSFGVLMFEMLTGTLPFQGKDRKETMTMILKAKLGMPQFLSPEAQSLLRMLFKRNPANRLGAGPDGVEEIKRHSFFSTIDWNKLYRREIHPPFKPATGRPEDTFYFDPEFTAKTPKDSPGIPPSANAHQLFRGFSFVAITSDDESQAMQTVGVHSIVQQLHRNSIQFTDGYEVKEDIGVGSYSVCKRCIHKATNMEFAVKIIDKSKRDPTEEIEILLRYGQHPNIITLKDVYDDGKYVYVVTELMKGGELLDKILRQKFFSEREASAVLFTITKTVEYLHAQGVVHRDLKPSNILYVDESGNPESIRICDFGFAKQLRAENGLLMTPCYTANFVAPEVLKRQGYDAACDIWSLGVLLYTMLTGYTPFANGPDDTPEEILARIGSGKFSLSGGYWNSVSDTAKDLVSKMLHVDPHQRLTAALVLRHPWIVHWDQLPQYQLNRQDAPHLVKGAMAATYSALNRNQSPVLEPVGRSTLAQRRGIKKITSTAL
G protein-coupled receptor kinase 5, sequence (P34947 whole entry): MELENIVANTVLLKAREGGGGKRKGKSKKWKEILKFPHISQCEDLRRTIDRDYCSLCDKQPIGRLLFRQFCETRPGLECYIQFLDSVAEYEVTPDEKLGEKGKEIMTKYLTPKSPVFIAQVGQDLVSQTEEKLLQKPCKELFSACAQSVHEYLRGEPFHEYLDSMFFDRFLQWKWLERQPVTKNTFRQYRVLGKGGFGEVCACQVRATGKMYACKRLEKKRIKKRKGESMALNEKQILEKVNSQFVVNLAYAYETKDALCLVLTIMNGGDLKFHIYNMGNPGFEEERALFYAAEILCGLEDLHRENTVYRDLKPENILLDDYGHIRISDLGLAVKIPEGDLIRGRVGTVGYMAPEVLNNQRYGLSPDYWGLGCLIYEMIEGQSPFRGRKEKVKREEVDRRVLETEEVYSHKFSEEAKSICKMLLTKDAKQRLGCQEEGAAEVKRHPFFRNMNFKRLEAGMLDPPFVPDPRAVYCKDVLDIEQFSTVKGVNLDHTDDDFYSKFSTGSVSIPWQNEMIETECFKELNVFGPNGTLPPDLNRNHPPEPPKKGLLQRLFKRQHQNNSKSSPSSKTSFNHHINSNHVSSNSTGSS
Mothers against decapentaplegic homolog 3, sequence (P84022 whole entry): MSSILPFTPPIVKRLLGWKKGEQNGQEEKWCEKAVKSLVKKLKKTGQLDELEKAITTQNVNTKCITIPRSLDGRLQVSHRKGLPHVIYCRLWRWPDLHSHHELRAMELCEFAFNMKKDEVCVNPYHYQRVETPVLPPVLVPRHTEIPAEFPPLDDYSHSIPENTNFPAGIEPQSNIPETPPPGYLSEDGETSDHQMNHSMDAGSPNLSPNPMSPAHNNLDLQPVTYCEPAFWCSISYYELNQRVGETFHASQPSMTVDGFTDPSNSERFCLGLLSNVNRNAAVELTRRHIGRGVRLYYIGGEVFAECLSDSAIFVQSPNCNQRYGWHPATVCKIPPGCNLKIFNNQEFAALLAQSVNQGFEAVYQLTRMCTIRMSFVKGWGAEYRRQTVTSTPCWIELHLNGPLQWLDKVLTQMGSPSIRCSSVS

As for `CCOC(=O)c1ccc(NC2=CC(=O)C(=O)c3ccccc32)cc1`, in assay [1], the IC50 (commonly the concentration needed to halve the response being measured) is 2.81 µM (active). Also, the CC50 (usually the concentration at which the toxic effect on the cells reaches its halfway point) in assay [2] was 22.3 µM (active).
As for `OC(CNCCC1C=Nc2ccccc21)Cn1c2ccc(Cl)cc2c2cc(Cl)ccc21` (stereo not drawn), the AC50 (in general, the concentration giving half of the maximal activity seen) in assay [3] was 79.3 µM (active); in assay [4], 5.11 µM (active). In assay [5], the EC50 (in general, the concentration at which the effect is half-maximal) was > 54.7 µM (inactive).
As for `NC1CCC(Nc2nc(Cl)cc(-c3c[nH]c4ncccc34)n2)CC1` (stereo not drawn), the values for the Ki in assay [6] and in assay [7] were 0.00316 µM (active) and 0.0126 µM (active), respectively. For the same compound, the figures for the pKi in assay [6] and in assay [7] were 8.5 and 7.9, respectively.
Consider `O=C(O)C1CN(Cc2ccc(OCc3ccccc3)cc2Cl)C1`, for which the figures for the Ki in assay [8] and in [9] were > 3.98 µM (inactive) and > 3.16 µM (inactive), respectively.
For the compound `COc1ccc(C(=O)c2nccc3cc(OC)c(OC)cc23)cc1OC`, the results for the IC50 in assay [10] and in assay [11] were 19.6 µM (not active) and 1.67 µM (active), respectively.
